# Data as given in US9725490B2, “ERAP1-derived peptide and use thereof” (TOKUSHIMA UNIVERSITY, priority 2011, dated 2017).
# Assays:
# Format in all cases: cell-based, human
# MCF-7 cells [1] = assay: MTT assay of tamoxifen with ERAP1 knockdown; conditions: 10 μM tamoxifen, 96 hours, 1 μM E2
# Procedure: (§1) FIG. 17 is a diagram illustrating the influence of ERAP1 knockdown on the suppression effect on proliferation of breast cancer cells by tamoxifen.
# The inhibition effect of tamoxifen when ERAP1 was knocked down by siRNA method was evaluated with MTT assay. The sequences of si-ERAP1, and si-control (si-EGFP) and the method for the experiment were in accordance with the report of Kim et, al. (Cancer Science, 2009, 100; 1468-78) MCF-7 cells were seeded in […] on a 48-well plate, and stimulated with 1 μM E2, and after 24 hours, treated with si-ERAP1 or si-control. After 24 hours, the cells were treated with 10 μM tamoxifen and the number of living cells was evaluated with MTT assay after 96 hours.
# [2] = tested on: Akt, MAPK and ERα phosphorylation; assay: Phosphorylation of Akt, MAPK and ERα in tamoxifen-resistant MCF-7 cells; conditions: Tam-R MCF-7, tamoxifen alone or tamoxifen and E2
# Procedure: FIG. 14 is a diagram illustrating the suppression effect of the ERAP1-peptide on tamoxifen-resistant MCF-7 cells. […] The tamoxifen-resistant MCF-7 cells were treated with the ERAP1-peptide in each concentration (0, 5 and 10 μM). Then, immediately, the cells were stimulated with 10 nM E2 for 24 hours.
# MCF-7 cells and tamoxifen-resistant MCF-7 cells were seeded in 1×10^5/well in DMEM/F12 culture medium containing phenol red on a 24-well plate and stood in a CO2 incubator for 24 hours. Then, the culture medium was exchanged with DMEM/F12 culture medium containing 10% FBS, 1% penicillin/streptomycin and 1 μM tamoxifen, and not containing phenol red, and the cells were further pre-cultured for 24 hours. The supernatant was removed, and then 180 μl of […] ERAP1-peptide was added (final concentration: 10 μM), and subsequently 20 μl of 100 nM E2 was added (final concentration: 10 nM), and the mixture was reacted for 24 hours. The reaction solution was removed, and then 100 μl of SDS-sample buffer was added and the cells were lysed. The cells were subjected to boiling treatment at 95° C. for 5 minutes, and subjected to polyacrylic amide electrophoresis. Phosphorylations of Akt and MAPK were detected with anti-phosphorylation Akt (Ser473) (587F11) and anti-phosphorylation p44/42 MAP Kinase (Thr202/Tyr204) antibodies, and phosphorylation of ERα was detected with anti-phosphorylation ERα (Ser104/106), anti-phosphorylation ERα (Ser118), anti-phosphorylation ERα (Ser167), anti-phosphorylation ERα (Ser305) and anti-phosphorylation ERα (Tyr537) antibodies.
# ERE reporter activity = assay: ERE-luciferase assay of tamoxifen with ERAP1 knockdown; conditions: 10 μM tamoxifen, 96 hours, 1 μM E2
# Procedure: as §1
# In addition, the inhibition effect of tamoxifen when ERAP1 was knocked down by siRNA method was evaluated with ERE-luciferase assay. MCF-7 cells were seeded in 2×10^4/well on a 96-well plate, and were temporarily transfected with ERE-luciferase reporter. Then, the cells were stimulated with 1 μM E2, and after 24 hours, treated with si-ERAP1 or si-control. After 24 hours, the cells were treated with 10 μM tamoxifen and after 96 hours, ERE luciferase activity was measured.
# ERAP1 expression = assay: ERAP1 expression, quantitative RT-PCR and Western, MCF-7; conditions: tamoxifen, 10 nM E2 24 hours
# MCF-7 cells [3] = assay: Cell cycle FACS analysis, MCF-7; conditions: 10 μM ERAP1-peptide and/or 10 nM tamoxifen, 10 nM E2 24 hours
# Procedure: FIG. 6-2 is a diagram illustrating that ERAP1-peptide treatment suppresses ERα-dependent cell proliferation of breast cancer cell lines. […] MCF-7 cells were treated with 10 μM ERAP1-peptide or 10 μM tamoxifen. Then, immediately, the cells were stimulated with 10 nM E2 for 24 hours. After the immobilization, the cells were stained with propidium iodide, and analyzed by flow cytometry.
# FIG. 19 is a diagram illustrating the results of FACS analysis showing the effects of concomitant use of the ERAP1-peptide and tamoxifen on the cell cycle.
# The cells were fixed with cold 70% ethanol, and stained with 20 μg/ml propidium iodide (Sigma) and 1 mg/ml ribonuclease A (Sigma), and analyzed with FACSCalibur (B D, Franklin Lakes, N.J., USA). The cell cycle was evaluated using CellQuest software (BD).
# MCF-7 cells were treated with 10 μM ERAP1-peptide and/or 10 nM tamoxifen. Then, immediately, the cells were stimulated with 10 nM E2 for 24 hours. After the immobilization, the cells were stained with propidium iodide, and analyzed by flow cytometry.
smiles,measurement,setting,value
"CC/C(=C(\c1ccccc1)c1ccc(OCCN(C)C)cc1)c1ccccc1 [tamoxifen, reference compound]","cell proliferation, siERAP1 versus si-control",MCF-7 cells [1],the cell proliferation was suppressed more
same,phosphorylations of Akt and MAPK,[2],accelerated phosphorylations of Akt and MAPK
same,"ERE reporter activity, siERAP1 versus si-control",ERE reporter activity,the reporter activity was suppressed more
same,"expression of ERAP1, mRNA level and protein level",ERAP1 expression,suppressed depending on the concentration of TAM
same,cell cycle,MCF-7 cells [3],increase of cells having stopped in the G1 phase
